Among the data in patent publication US11707539B2, “FAP-targeted radiopharmaceuticals and imaging agents, and uses related thereto” (Trustees of Tufts College, priority 2020, dated 2023) are radiochemical purity remained values, retold here.

A short description of the series: Radiochemical purity by HPLC on storage at room temperature. It is filed as physicochemical. As to conditions: three days at room temperature. As to the method: The labeling efficiency was analyzed by instant thin layer chromatography (iTLC) and was typically >98%. For iTLC analysis, 1 μL of diluted labeling solution was applied to a strip of iTLC-SA chromatography paper (Agilent P/N A120B12, 114×2.5 mm) and developed in 0.1M citrate buffer (8 cm solvent migration) to assess free ^177Lu (Rf >0.5) and [^177Lu]-6555 (Rf ˜0). The iTLC strips were analyzed using an Eckert & Ziegler AR-2000 Radio-TLC Imaging Scanner. The radiochemical purity was analyzed by high performance chromatography (HPLC) and was typically >90%. Briefly, the product was analyzed using a Phenomenex Luna 3.0 μm C18(2), 100A, 150 mm×4.6 mm column. Eluent A: 50 mM ammonium acetate in water, eluent B: acetonitrile. Gradient: 2% B from 0-5 min; 2% to 26% B from 5-20 min; 26% to 98% B from 20-25 min; 98% to 2% B from 25-26 min; 2% B from 26-30 min. Flow rate: 1.0 mL/min, Radio-HPLC detector: NaI (Eckert & Zeigler FC-1000), UV: 215 nm. The radiochemical purity remained >90% for three days at room temperature.
The above depicted radiopharmaceutical [^177Lu]-6952 can be prepared as described in Example 19 using the radiochemical precursor 6952 (Example 14 above). The labeling efficiency was analyzed by instant thin layer chromatography (iTLC) and was typically >98%. […] The iTLC strips were analyzed using an Eckert & Ziegler AR-2000 Radio-TLC Imaging Scanner. The radiochemical purity was analyzed by high performance chromatography (HPLC) and was typically >90%. Briefly, the product was analyzed using a Phenomenex Luna 3.0 m C18(2), 100A, 150 mm×4.6 mm column. […]
The labeling efficiency was analyzed by instant thin layer chromatography (iTLC) and was typically >95%. […] The iTLC strips were analyzed using an Eckert & Ziegler AR-2000 Radio-TLC Imaging Scanner. The radiochemical purity was analyzed by high performance chromatography (HPLC) and was typically >95%. Briefly, the product was analyzed using a Phenomenex Luna 3.0 m C18(2), 100Å, 150 mm×4.6 mm column. […]
The labeling efficiency was analyzed by instant thin layer chromatography (iTLC) and was typically >95%. […]

For the compound `C[C@@H](NC(=O)[C@H]1CC[C@H](CNC(=O)CN2CCN3CCN4CCN(CC2)CC(=O)[O][Lu]([O]C(=O)C3)[O]C(=O)C4)CC1)C(=O)N1CCC[C@H]1B(O)O` [[^177Lu]-6952], the radiochemical purity remained was greater than 90%.
